Reference: patent US9737535B2, “Methods for treating cancer using TOR kinase inhibitor combination therapy comprising administering substituted pyrazino[2,3-b]pyrazines” (Signal Pharmaceuticals, LLC, priority 2014, dated 2017)

How the values were obtained:
Test in all cases: Anti-proliferation assay (ATPLite), Chalice synergy score
Assay type in all cases: cell-based
HCC-1187 = tested on: HCC-1187; set-up: scale not given here; conditions: Compound 1 in combination with the named second active agent, 72 h, mean of n = 3 experiments in triplicate
Description: (§1) Cells were thawed from a liquid nitrogen preserved state.
(§2) The calculation for synergy score is provided below.
(§3) If T≧V0:100*[1−(T−V0)/(V−V0)]

HCC-1500 = tested on: HCC-1500; set-up: scale not given here; conditions: Compound 1 in combination with the named second active agent, 72 h, mean of n = 3 experiments in triplicate
Description: as §1, §2, §3

BT-20 = tested on: BT-20; set-up: scale not given here; conditions: Compound 1 in combination with the named second active agent, 72 h, mean of n = 3 experiments in triplicate
Description: as §1, §2, §3

BT-474 = conditions: Compound 1 in combination with the named second active agent, 72 h, mean of n = 3 experiments in triplicate
Description: as §1, §2, §3

MDA-MB-231 = conditions: Compound 1 in combination with second active agent, mean self-cross + 2σ threshold 2.61
Description: as §1, §2, §3

HCC-1937 = conditions: Compound 1 in combination with the named second active agent, 72 h, mean of n = 3 experiments in triplicate
Description: as §1, §2, §3

BT-549 = conditions: Compound 1 in combination with the named second active agent, 72 h, mean of n = 3 experiments in triplicate
Description: as §1, §2, §3

MCF7 = conditions: Compound 1 in combination with second active agent, mean self-cross + 2σ threshold 3.07
Description: as §1, §2, §3

MDA-MB-157 = conditions: Compound 1 in combination with second active agent, mean self-cross + 2σ threshold 4.68
Description: as §1, §2, §3

Hs-578-T = conditions: Compound 1 in combination with second active agent, mean self-cross + 2σ threshold 4.09
Description: as §1, §2, §3

HCC-1428 = conditions: Compound 1 in combination with the named second active agent, 72 h, mean of n = 3 experiments in triplicate
Description: as §1, §2, §3

HCC70 = conditions: Compound 1 in combination with second active agent; HCC-70; mean self-cross + 2σ threshold 3.45
Description: as §1, §2, §3

HCC-1806 = conditions: Compound 1 in combination with the named second active agent, 72 h, mean of n = 3 experiments in triplicate
Description: as §1, §2, §3

MDA-MB-436 = conditions: Compound 1 in combination with second active agent, mean self-cross + 2σ threshold 1.91
Description: as §1, §2, §3

MDA-MB-468 = conditions: Compound 1 in combination with second active agent, mean self-cross + 2σ threshold 4.66
Description: as §1, §2, §3

| Structure (SMILES) | Synergy score (HCC-1187) | Synergy score (HCC-1500) | Synergy score (BT-20) | Synergy score (BT-474) | Synergy score (MDA-MB-231) | Synergy score (HCC-1937) | Synergy score (BT-549) | Synergy score (MCF7) | Synergy score (MDA-MB-157) | Synergy score (Hs-578-T) | Synergy score (HCC-1428) | Synergy score (HCC70) | Synergy score (HCC-1806) | Synergy score (MDA-MB-436) | Synergy score (MDA-MB-468) |
| --- | --- | --- | --- | --- | --- | --- | --- | --- | --- | --- | --- | --- | --- | --- | --- |
| C[C@]1(c2nc3c(C(N)=O)cccc3[nH]2)CCCN1 [ABT-888] | 1.28 | 1.13 | 0.33 | 0.09 | 0.22 | 0.35 | 0.35 | 0.25 | 0.90 | 0.42 | 0.09 | 1.10 | 0.56 | 0.32 | 0.18 |
| O=C(NC[C@H](O)CO)c1ccncc1Nc1ccc(I)cc1F [AS703026] | 8.22 | 4.24 | 6.08 | 2.61 | 10.90 | 2.41 | 1.73 | 2.90 | 6.66 | 6.43 | 6.26 | 13.70 | 4.71 | 2.25 | 5.71 |
| C=CC(=O)Nc1ccc2ncnc(Nc3ccc(OCc4cccc(F)c4)c(Cl)c3)c2c1 [AST-1306] | 2.17 | 0.96 | 7.60 | 4.02 | 4.37 | 6.39 | 4.88 | 4.34 | 3.02 | 4.43 | 2.69 | 7.50 | 5.59 | 2.08 | 5.65 |
| Clc1ccc(C2(c3ccc(-c4cn[nH]c4)cc3)CCNCC2)cc1 [AT7867] | 4.19 | 2.00 | 3.07 | 1.83 | 3.58 | 1.72 | 4.50 | 1.39 | 3.19 | 5.24 | 1.42 | 4.28 | 2.04 | 1.95 | 3.60 |
| NC(=O)Nc1cc(-c2cccc(F)c2)sc1C(=O)N[C@H]1CCCNC1 [AZD7762] | 1.65 | 3.02 | 3.92 | 1.21 | 3.66 | 4.44 | 0.39 | 0.08 | 3.09 | 8.16 | 2.58 | 4.61 | 0.32 | 0.93 | 0.94 |
| COc1ccc(-c2ccc3c(N4CCOC[C@@H]4C)nc(N4CCOC[C@@H]4C)nc3n2)cc1CO [AZD8055] | 2.00 | 2.98 | 0.70 | 1.53 | 0.61 | 2.24 | 0.98 | 1.22 | 1.04 | 1.55 | 1.79 | 1.13 | 1.47 | 0.15 | 1.69 |
| COc1ccc(-c2cc3nccn3c(Nc3ncccc3C(N)=O)n2)cc1OC.Cl [BAY61-3606 Hydrochloride] | 3.17 | 0.02 | 0.20 | 0.04 | 0.79 | 0.18 | 2.31 | 1.49 | 1.49 | 5.49 | 1.21 | 3.93 | 0.48 | 0.94 | 5.47 |
| COc1c(C)cnc(Cn2cnc3c(Cl)nc(N)nc32)c1C [BIIB021] | 0.45 | 1.11 | 3.71 | 2.83 | 1.22 | 1.44 | 0.12 | 0.15 | 3.94 | 1.19 | 4.02 | 9.58 | 1.01 | 0.33 | 5.46 |
| NC(=O)[C@@H](CCC(F)(F)F)N(Cc1ccc(-c2ncon2)cc1F)S(=O)(=O)c1ccc(Cl)cc1 [BMS-708163] | 3.06 | 0.34 | 0.20 | 0.19 | 1.45 | 0.96 | 0.34 | 0.16 | 0.63 | 1.36 | 0.26 | 1.24 | 0.89 | 0.86 | 0.98 |
| C[C@@]1(C(=O)Nc2ccc(F)nc2)CCCN1c1nc(Nc2cc(C3CC3)n[nH]2)c2cccn2n1 [BMS-754807] | 9.68 | 3.99 | 2.08 | 1.30 | 2.50 | 0.64 | 2.14 | 5.31 | 9.46 | 3.32 | 4.09 | 2.08 | 3.04 | 2.00 | 2.25 |
| Cc1ccc(S(=O)(=O)/C=C/C#N)cc1 [Bay 11-7082] | 0.51 | 0.52 | 0.00 | 0.93 | 0.61 | 1.23 | 1.16 | 0.02 | 3.65 | 1.51 | 1.53 | 1.13 | 1.01 | 1.24 | 1.89 |
| O=C(O)c1ccc2c(c1)nc(Nc1cccc(Cl)c1)c1ccncc12 [CX-4945] | 7.53 | 2.93 | 6.09 | 4.91 | 2.30 | 7.92 | 3.41 | 2.26 | 4.55 | 5.97 | 3.28 | 10.60 | 4.19 | 1.70 | 6.73 |
| CO[C@H]1/C=C\C=C(/C)C(=O)NC2=CC(=O)C(NCCN(C)C)=C(C[C@@H](C)C[C@H](OC)[C@H](O)[C@@H](C)/C=C(\C)[C@@H]1OC(N)=O)C2=O [Compound 17-DMAG] | 0.33 | 0.99 | 5.94 | 2.24 | 1.00 | 1.70 | 0.01 | 0.13 | 6.09 | 0.45 | 2.46 | 11.10 | 1.40 | 0.61 | 7.72 |
| C[C@]12CC[C@@H]3c4ccc(O)cc4C[C@@H](CCCCCCCCC[S+]([O-])CCCC(F)(F)C(F)(F)F)[C@H]3[C@@H]1CC[C@@H]2O (stereo partly drawn) [Fulvestrant] | 2.16 | 5.15 | 1.39 | 1.37 | 0.77 | 1.98 | 1.25 | 2.45 | 0.42 | 2.10 | 1.09 | 1.50 | 1.30 | 0.74 | 0.41 |
| OCCn1cc(-c2ccc3c(c2)CC/C3=N\O)c(-c2ccncc2)n1 [GDC-0879] | 0.85 | 0.91 | 0.00 | 0.46 | 0.54 | 0.29 | 0.08 | 0.11 | 0.69 | 0.75 | 0.13 | 0.43 | 0.47 | 0.13 | 0.44 |
